Data taken from patent EP4653443A1, “STEREOISOMER AND DEUTERATED DERIVATIVE OF PYRAZOLOQUINAZOLINE COMPOUND AND USE” (Phil Rivers Technology Co., Ltd, priority 2023, dated 2024).
≈ marks a conversion by molar mass, not a printed value. Read-outs that look alike come from different tables or passages of the source.

How the values were obtained:
[1] = tested on: HCT116 cells; type: in vivo; conditions: for TGI: test endpoint (PG-D22), TGITV
Procedure: • Balb/c nude mice: SPF grade, female, 6-8 weeks old, weighing 16-20 g, purchased from SPF (Beijing) Biotechnology Co., Ltd. • HCT116 cells: purchased from ATCC;
HCT116 cells were cultured in RPMI-1640 medium containing inactivated 10% fetal bovine serum, 100 U/mL penicillin, 100 µg/mL streptomycin and 2 mM glutamine in an incubator at 37°C with 5% CO2. Once the cells reached confluence, they were subcultured into new flasks. The tumor cells in the logarithmic growth phase were used for inoculation of tumors in vivo.
The tumor cells were washed twice with PBS, and the cell concentration was adjusted to 5×10^7/ml. The resuspended tumor cells were inoculated subcutaneously in the right flank of the experimental animals at 100 µL/mouse, i.e. 5×10^6/mouse. When the tumor grew to an average tumor volume of […], the animals were grouped for drug administration according to the tumor volume, with a total of 7 groups, 8 animals in each group. The first day of group drug administration was recorded as PG-D0. Table 25. Administration Schedule
During the administration, the health status of the animals is monitored.
From grouping until the end of the experiment, mouse body weight was measured every 3 days using an electronic balance.
From grouping until the end of the experiment, the long and short diameters of the mouse tumors were measured every 3 days using an electronic vernier caliper, and the volume was calculated using the formula: Volume (TV) = 0.5 × long diameter × (short diameter)^2.
RTV is the relative tumor volume, that is, the ratio of the tumor volume after administration to that before administration.
Graphpad prism 8 statistical software was used to perform statistical analysis of tumor volume and tumor weight among groups using the One-Way ANOVA test (homogeneity of variance), and p < 0.05 was considered statistically significant.

[2] = Thermodynamic solubility test; type: physicochemical; conditions: phosphate buffer, aqueous buffer, thermodynamic from solid, pH 7.4, 25°C
Procedure: Weigh 7.098 g Na2HPO4 (Solution A) and dissolve in 500 mL ultrapure water via sonication; weigh 3.40 g KH2PO4 (Solution B) and dissolve in 250 mL ultrapure water via sonication. Slowly add Solution B dropwise to Solution A and adjust the pH to 7.40 ± 0.05.
Shake at 1100 rpm, 25°C for 5 minutes; • i) Add 10 µL of the 1 mg/mL DMSO sample and 10 µL of buffer to 980 µL of methanol, then dilute 10-fold with methanol:water (1:1) as the standard sample for LC-MS/MS analysis.
Solubility was calculated using Excel. Solubility(μM) = (Areafiltered × DFfiltered)/(Areastd × DFstd) × [std] × DFstd [formula]

[3] = tested on: PSN1 cells; type: in vivo; conditions: for TGI: endpoint (day 31), TGITV; for mice died: 8 mice per group
Procedure: • M-NSG mice: SPF grade, female, 6-8 weeks old, weighing 16-20 g, purchased from Shanghai Model Organisms Technology Co., Ltd. • PSN1 cells: purchased from ATCC;
PSN1 cells were cultured in an incubator at 37°C and 5% CO2 in RPMI-1640 medium containing 10% inactivated fetal bovine serum. Cells were subcultured by passaging into new culture dishes every 2 to 3 days when they reach confluent.
• 8.2.3.1 PSN1 cells in the logarithmic growth phase were taken and resuspended in PBS. The cell suspension was inoculated subcutaneously into the right flank of M-NSG mice using a 1mL syringe (inoculated cell count: 5E6/mouse + 30%M). The survival status of the mice and the subcutaneous tumor formation were observed every other day. • 8.2.3.2 On the day of grouping, mice were randomly divided into 8 groups with 8 mice in each group based on the average tumor volume (~190 mm^3) and mouse body weight; • 8.2.3.3 The mice were dosed according to the grouping scheme, all by intragastric administration. […]. The hair condition and status of the mice were observed, and the body weight and tumor size were recorded twice a week to calculate TGI%. • 8.2.3.4 Grouping of Test Animals
When the average tumor volume reached ~ 190 mm^3, mice with moderate individual tumor volume were selected for inclusion in the group. The animals were randomly assigned to experimental groups according to tumor volume and mouse weight, with 8 mice in each group. Administration started one day after grouping.
TV = 1/2 × a × b2 [formula] wherein: a represents the long diameter of the tumor; b represents the short diameter of the tumor.
RTV = Vt /Vinitial × 100(%) [formula]
T/C(%) = (TRTV/CRTV) × 100% [formula]
TGI = [1−(TVt/TVinitial)/([…])] × 100% [formula]
wherein, TVt represents the tumor volume of the treatment group at each measurement; TVinitial represents the tumor volume of the treatment group at the time of grouping and administration; CVt represents the tumor volume of the control group at each measurement; CVinitial represents the tumor volume of the control group at the time of grouping and administration.
Body Weight Change Rate = (BWfinal-BWinitial) / BWinitial × 100% [formula] wherein, BWinitial represents the animal body weight at the time of grouping and administration; BWfinal represents the animal body weight at each measurement.
The original data of measurement and observation must be recorded. The analysis and processing are based on the original data, and the results are presented as mean and standard error of the mean (Mean ± SEM). T-test is used to analyze the difference in tumor volume between the control group and the treatment group. P < 0.05 indicates statistical significance.

[4] = in vivo; conditions: iv
Procedure: The objective of this study is to investigate the pharmacokinetic properties of the disclosed compounds after tail vein intravenous injection (IV) and oral administration (PO) in female CD1 mice. Plasma was sampleed at 0, 0.083, 0.25, 0.5, 1, 2, 4, 7 and 24 hours post-dosing, and the drug concentrations in plasma at different time points were detected by LC-MS/MS, and the relevant pharmacokinetic parameters were calculated using WinNonlin software.
Experimental female CD1 mice were purchased from SPF Laboratory Animal Technology Co., Ltd., aged 6-8 weeks with body weights of 20-30 g. The female CD1 mice were housed in a controlled environment (set temperature at 20-25°C and relative humidity at 40-70%). A 12-hour light/12-hour dark cycle was maintained unless interrupted by study-related events.
Compound solutions are prepared in an ultra-clean workbench and prepared immediately before use, and mixed thoroughly prior to use to ensure formulation homogeneity.
Vehicle composition: 10% DMSO+90% (20%SBE-β-CD) Table 4. Doses Used in IV Administration
Vehicle composition: 10% DMSO + 90% (20%SBE-β-CD) Table 5. Doses Used in PO Administration
Vehicle composition: 0.5% MC + 1% Tween-20 Table 6. Doses Used in PO Administration
Prior to the experiment, the animals were randomly grouped. The mice were fasted for 12 hours before drug administration, and free feeding was resumed 4 hours after administration.
All blood samples were transferred into plastic microcentrifuge tubes containing anticoagulant (EDTA-K2), and then centrifuged at 4000 g for 5 minutes at 4°C. The supernatant was transferred into a microcentrifuge tube without anticoagulant, and the plasma was stored in a -75±15°C refrigerator until detection.
The blood samples were purified by HPLC and analyzed by mass spectrometry to obtain the plasma concentration-time curve of the disclosed compound.
The pharmacokinetic parameters were estimated by non-compartmental model method (calculated by Phoenix WinNonlin software).

[5] = Metabolic stability in liver microsomes (mouse); type: in vitro ADME; conditions: for Residual Amount (%) 15 min / Residual Amount (%) 30 min / Residual Amount (%) 45 min / Residual Amount (%) 60 min: Mouse, first line of pair
Procedure: For negative samples, add 80µL of PBS (100mM, pH = 7.4) solution. Vortex at 800 rpm for 10 seconds, then pre-incubate in a 37°C water bath for 10 minutes. • 4) After pre-incubation, add 2 µL of control drug or test compound to each well to initiate the reaction. The reaction is carried out in a 37°C water bath at 60 rpm. • 5) At 0.5, 15, 30, 45, and 60 minutes, take 50 µL of the reaction system from each well and add it to 200 µL of cold methanol solution containing the internal standard to terminate the reaction. • 6) Mix thoroughly and centrifuge at 4000 rpm at 4°C for 30 minutes. • 7) Take 100µL of supernatant and mix with 100µL ultrapure water for liquid-mass analysis. *Internal standards: 50nM alprazolam, 50nM labetalol and 100nM ketoprofen
The internal standard method is adopted, and the ratio of the sample peak area to the internal standard peak area is used to calculate the residual percentage (taking the ratio of the sample peak area to the internal standard peak area at 0.5 minutes as 100%).

[6] = 30 mg/kg p.o. q.d. 10 consecutive days
[7] = 60 mg/kg p.o. q.d. 10 consecutive days
[8] = 60 mg/kg p.o. QD*6 times, during administration
[9] = female, CD1, mouse, plasma, 10 mg/kg
[10] = male, CD-1, pH 7.4, Mouse liver microsomes
[11] = female, CD1, mouse, plasma, 2 mg/kg

[2H]C1([2H])CN(c2ccc(OC(F)(F)F)c(Nc3ncc4c(n3)-c3c(c(C(N)=O)nn3CCO)CC4)c2)C([2H])([2H])[C@H]2CCCN21 [CPD04]
TGI [1, 6]: 7.6% | TGI [1, 7]: 30.5% | solubility at 24 h [2]: 3 µg/mL (≈ 5.33 µM) | Mouse Mortality Rate ([3]; 90 mg/kg p.o. QD*6 times): 0% | mouse death ([3]; 90 mg/kg p.o. QD*6 times): no mouse death was found | TGI ([3]; 90 mg/kg p.o. QD*6 times): 40% | body weight loss ([3]; 90 mg/kg p.o. QD*6 times, throughout the period): no body weight loss was observed | AUC(0-t) ([4]; mouse, in vivo, 10 mg/kg): 3340 ng·h/mL | Vd ([4]; mouse, in vivo, 10 mg/kg): 2.31 L/kg | clearance ([4]; mouse, in vivo, 10 mg/kg): 50.1 mL/min/kg | half-life ([4]; mouse, in vivo, 10 mg/kg): 1.06 h | half-life ([5]; Mouse liver microsomes): 0.532 h | microsomal CLint ([5]; Mouse liver microsomes): 43.4 µL/min/mg | Residual Amount (%) 15 min [5]: 61.30% | Residual Amount (%) 30 min [5]: 39.18% | Residual Amount (%) 45 min [5]: 34.10% | Residual Amount (%) 60 min [5]: 26.56%

[2H]C1([2H])N(C)C([2H])([2H])C([2H])([2H])N(c2ccc(OC(F)(F)F)c(Nc3ncc4c(n3)-c3c(c(C(N)=O)nn3CCO)CC4)c2)C1([2H])[2H] [CPD06]
TGI [1, 6]: 42.4% | TGI [1, 7]: 75.6% | solubility at 24 h [2]: 22.6 µg/mL (≈ 41.8 µM) | Mouse Mortality Rate ([3]; 60 mg/kg p.o. QD*6 times): 0% | mice died ([3]; 60 mg/kg p.o. QD*6 times): No mice died | body weight loss [3, 8]: ≤ 15% | TGI ([3]; 60 mg/kg p.o. QD*6 times): 53% | AUC(0-t) [4, 9]: 3050 ng·h/mL | Vd [4, 9]: 3.02 L/kg | clearance [4, 9]: 55.1 mL/min/kg | half-life [4, 9]: 1.05 h | Residual Amount (%) 15 min [5]: 81.80% | Residual Amount (%) 30 min [5]: 68.21% | Residual Amount (%) 45 min [5]: 64.96% | Residual Amount (%) 60 min [5]: 57.01% | half-life at 2 µM [5, 10]: 1.27 h | microsomal CLint [5, 10]: 18.2 µL/min/mg

CN1CCN(c2ccc(OC(F)(F)F)c(Nc3ncc4c(n3)-c3c(c(C(N)=O)nn3CCO)CC4)c2)CC1 [NMS-P937, onvansertib, reference compound]
TGI [1, 6]: 44.1% | TGI [1, 7]: 64.2% | mice died ([1]; 60 mg/kg p.o. q.d., 8 mice per group): three | solubility at 24 h [2]: 24.8 µg/mL (≈ 46.6 µM) | Mouse Mortality Rate ([3]; 60 mg/kg p.o. QD*6 times): 50% | mice died ([3]; 60 mg/kg p.o. QD*6 times): half | body weight loss [3, 8]: decreased severely | AUC(0-t) [4, 11]: 353 ng·h/mL | Vd [4, 11]: 5.71 L/kg | clearance [4, 11]: 95.7 mL/min/kg | half-life [4, 11]: 1.52 h | AUC(0-t) [4, 9]: 4540 ng·h/mL | Vd [4, 9]: 3.22 L/kg | clearance [4, 9]: 36.9 mL/min/kg | half-life [4, 9]: 3.52 h | Residual Amount (%) 15 min [5]: 82.56% | Residual Amount (%) 30 min [5]: 69.31% | Residual Amount (%) 45 min [5]: 61.60% | Residual Amount (%) 60 min [5]: 53.17% | half-life at 2 µM [5, 10]: 1.11 h | microsomal CLint [5, 10]: 20.9 µL/min/mg
